Results taken from ChEMBL document CHEMBL1201862, “PubChem BioAssay data set” (2004).
Activity calls are given as the source filed them.

Legend:
Coagulation factor XII = target: T1, Coagulation factor XII (Homo sapiens, UniProt P00748); type: functional;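 note: activated factor XIIa alpha cleaving a fluorogenic AMC peptide substrate; inhibitor potency from loss of enzyme activity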
T1 sequence (P00748 whole entry): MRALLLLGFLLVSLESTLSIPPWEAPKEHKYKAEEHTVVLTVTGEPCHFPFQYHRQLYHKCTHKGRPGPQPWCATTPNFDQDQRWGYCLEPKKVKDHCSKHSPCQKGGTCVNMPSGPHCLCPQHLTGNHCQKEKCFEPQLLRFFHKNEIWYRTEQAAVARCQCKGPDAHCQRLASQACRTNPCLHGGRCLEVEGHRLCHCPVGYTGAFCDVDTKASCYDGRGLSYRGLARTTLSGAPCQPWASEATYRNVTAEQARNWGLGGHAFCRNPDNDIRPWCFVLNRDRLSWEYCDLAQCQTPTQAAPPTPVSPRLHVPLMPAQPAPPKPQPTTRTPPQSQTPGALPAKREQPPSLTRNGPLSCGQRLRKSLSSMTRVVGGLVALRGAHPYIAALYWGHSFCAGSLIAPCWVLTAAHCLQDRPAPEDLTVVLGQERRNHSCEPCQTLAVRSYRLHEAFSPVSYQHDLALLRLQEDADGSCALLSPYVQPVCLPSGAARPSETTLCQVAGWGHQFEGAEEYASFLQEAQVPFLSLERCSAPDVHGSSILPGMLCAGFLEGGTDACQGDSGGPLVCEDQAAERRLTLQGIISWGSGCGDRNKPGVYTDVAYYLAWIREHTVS

[1] = CRF-BP/CRF-R2 complex antagonists, dose response, cell-based, uHTS hits, 384-well (AID 651639); type: functional, Homo sapiens; conditions: read-out: IC50_Mean
Cytochrome P450 2D6 = Cytochrome P450 2D6 (Homo sapiens, UniProt P10635);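 note: CYP2D6 member of a cytochrome P450 panel assay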
Sequence of Cytochrome P450 2D6 (P10635 whole entry): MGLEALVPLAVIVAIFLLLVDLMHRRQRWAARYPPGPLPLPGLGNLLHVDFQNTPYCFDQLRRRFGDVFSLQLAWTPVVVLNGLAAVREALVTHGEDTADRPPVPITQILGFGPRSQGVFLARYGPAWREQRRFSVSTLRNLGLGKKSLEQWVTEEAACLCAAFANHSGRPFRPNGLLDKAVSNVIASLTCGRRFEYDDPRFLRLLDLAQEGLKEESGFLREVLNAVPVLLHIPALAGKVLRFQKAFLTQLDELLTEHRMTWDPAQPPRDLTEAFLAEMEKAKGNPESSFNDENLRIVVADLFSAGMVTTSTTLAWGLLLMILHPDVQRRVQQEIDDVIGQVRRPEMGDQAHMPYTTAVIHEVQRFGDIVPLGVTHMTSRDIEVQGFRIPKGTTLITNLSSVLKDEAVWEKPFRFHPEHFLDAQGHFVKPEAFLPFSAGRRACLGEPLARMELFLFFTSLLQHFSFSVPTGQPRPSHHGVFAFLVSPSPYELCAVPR

[2] = target: T2, Corticotropin-releasing factor receptor 2/Corticotropin-releasing factor-binding protein (Homo sapiens, UniProt P24387+Q13324); test: activators of CRF receptor 2 with binding protein – uHTS hits, confirmation (AID 602473); type: functional; conditions: read-out: EC50_Mean
T2 sequence (Q13324 whole entry): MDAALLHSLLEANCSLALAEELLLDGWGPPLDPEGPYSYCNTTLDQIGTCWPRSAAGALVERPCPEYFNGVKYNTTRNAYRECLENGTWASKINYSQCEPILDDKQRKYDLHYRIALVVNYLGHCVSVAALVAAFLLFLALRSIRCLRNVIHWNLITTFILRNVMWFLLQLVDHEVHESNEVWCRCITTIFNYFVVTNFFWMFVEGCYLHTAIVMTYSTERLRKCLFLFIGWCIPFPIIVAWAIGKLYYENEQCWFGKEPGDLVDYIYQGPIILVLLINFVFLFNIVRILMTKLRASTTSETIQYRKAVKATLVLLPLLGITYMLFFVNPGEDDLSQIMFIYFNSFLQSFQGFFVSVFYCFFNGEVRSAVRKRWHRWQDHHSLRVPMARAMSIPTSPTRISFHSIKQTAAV
T2 sequence (P24387 whole entry): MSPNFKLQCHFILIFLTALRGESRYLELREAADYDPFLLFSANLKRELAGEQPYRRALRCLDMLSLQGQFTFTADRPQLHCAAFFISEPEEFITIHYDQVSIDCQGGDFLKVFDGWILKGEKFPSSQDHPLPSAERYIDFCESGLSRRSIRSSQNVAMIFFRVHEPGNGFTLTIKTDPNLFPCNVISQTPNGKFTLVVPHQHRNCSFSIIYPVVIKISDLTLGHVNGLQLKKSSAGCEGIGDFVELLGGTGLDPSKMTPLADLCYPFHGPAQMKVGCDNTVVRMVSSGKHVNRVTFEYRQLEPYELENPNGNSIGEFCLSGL

[3] = target: T2, Corticotropin-releasing factor receptor 2/Corticotropin-releasing factor-binding protein; test: Dose Response confirmation of uHTS hits for small molecule antagonists of the CRF-binding protein and CRF-R2 receptor complex.; type: functional; conditions: read-out: IC50_Mean
[4] = target: Heat shock protein HSP 90-alpha (Homo sapiens, UniProt P07900); type: functional, organism-based
[5] = test system: Streptococcus sp. 'group A'; test: growth inhibition of control SK(-) GAS strain, dose response, counter-screen for streptokinase expression inhibitor project, luminescence, kanamycin, BacTiterGlo, confirmation (AID 1900); type: functional, organism-based
INS1 = test: beta cell apoptosis inhibitors, cytokine rescue, dose response, luminescence, retest (AID 449756); type: functional, cell-based; conditions: Rattus norvegicus;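 note: cell death triggered by IL-1 beta plus TNF-alpha plus IFN-gamma mixture; protective hits raise ATP signal compared with cytokine alone wells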
[6] = inhibitors of intracellular T. cruzi replication, confirmation, NIH3T3 host cells, beta-gal luminescence (AID 2044); type: functional, cell-based;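 note: intracellular parasites grown in NIH/3T3 mouse fibroblasts as host cells; luminescent beta-galactosidase reporter signal from transgenic T. cruzi replicating inside host cells; inhibitors lower the luminescence signal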
Streptococcus = test: Group A Streptococcus viability loss, dose response, counter-screen for streptokinase expression inhibitor project, luminescence, BacTiterGlo (AID 1915); type: functional, organism-based;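 note: potency for reduction of bacterial viability or growth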
Streptokinase A = target: T3, Streptokinase A (Streptococcus pyogenes serotype M1, UniProt P10520); test: S. pyogenes streptokinase expression inhibitors, potency, dose response, plasminogen activation absorbance, OD405 (AID 1914); type: functional, Streptococcus pyogenes M1 GAS;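 note: secreted streptokinase activity via plasminogen activation per viability signal from cell pellet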
T3 sequence (P10520 whole entry): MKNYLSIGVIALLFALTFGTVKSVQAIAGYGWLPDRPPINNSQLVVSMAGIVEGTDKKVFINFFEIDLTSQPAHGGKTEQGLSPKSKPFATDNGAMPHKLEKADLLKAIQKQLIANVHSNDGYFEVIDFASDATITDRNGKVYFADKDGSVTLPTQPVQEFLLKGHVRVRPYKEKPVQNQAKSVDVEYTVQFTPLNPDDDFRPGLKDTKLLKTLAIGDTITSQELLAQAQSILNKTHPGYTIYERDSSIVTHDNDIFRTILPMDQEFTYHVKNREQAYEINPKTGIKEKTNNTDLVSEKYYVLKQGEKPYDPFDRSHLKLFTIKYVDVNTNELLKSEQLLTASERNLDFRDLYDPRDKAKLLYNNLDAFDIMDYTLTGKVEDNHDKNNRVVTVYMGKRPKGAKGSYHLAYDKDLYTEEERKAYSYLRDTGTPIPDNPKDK

Genome polyprotein = Genome polyprotein (dengue virus type 2, UniProt P29990); test: Dengue-2 NS5 methyltransferase inhibitors, primary screen, biochemical, confirmation dose response (AID 588689); type: functional
Sequence of Genome polyprotein (P29990 2492-3391 limits assumed): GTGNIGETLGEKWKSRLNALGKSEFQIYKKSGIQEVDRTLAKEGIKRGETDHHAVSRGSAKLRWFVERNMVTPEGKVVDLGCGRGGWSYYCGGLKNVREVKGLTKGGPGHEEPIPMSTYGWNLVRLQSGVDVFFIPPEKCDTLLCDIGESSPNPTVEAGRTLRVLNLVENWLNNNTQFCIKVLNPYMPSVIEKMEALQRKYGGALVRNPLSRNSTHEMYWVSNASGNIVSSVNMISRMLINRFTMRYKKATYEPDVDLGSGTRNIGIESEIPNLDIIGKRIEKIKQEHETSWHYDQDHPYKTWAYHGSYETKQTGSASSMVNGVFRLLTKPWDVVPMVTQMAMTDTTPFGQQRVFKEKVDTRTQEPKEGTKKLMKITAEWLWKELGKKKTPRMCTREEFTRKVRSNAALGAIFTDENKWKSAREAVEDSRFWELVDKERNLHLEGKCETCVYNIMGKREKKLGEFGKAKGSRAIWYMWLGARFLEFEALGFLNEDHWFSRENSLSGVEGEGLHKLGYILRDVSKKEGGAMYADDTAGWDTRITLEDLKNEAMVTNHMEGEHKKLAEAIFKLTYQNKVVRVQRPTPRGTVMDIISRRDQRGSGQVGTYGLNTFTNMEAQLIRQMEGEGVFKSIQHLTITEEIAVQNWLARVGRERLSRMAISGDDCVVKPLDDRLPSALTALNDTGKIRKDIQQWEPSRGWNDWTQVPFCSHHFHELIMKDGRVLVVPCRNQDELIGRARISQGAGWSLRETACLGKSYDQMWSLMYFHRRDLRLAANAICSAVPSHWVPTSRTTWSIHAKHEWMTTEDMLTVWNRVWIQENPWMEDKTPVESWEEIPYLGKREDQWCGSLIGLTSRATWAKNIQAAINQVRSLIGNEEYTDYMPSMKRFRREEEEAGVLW

Cytochrome P450 2C9 = Cytochrome P450 2C9 (Homo sapiens, UniProt P11712)
Sequence of Cytochrome P450 2C9 (P11712 whole entry): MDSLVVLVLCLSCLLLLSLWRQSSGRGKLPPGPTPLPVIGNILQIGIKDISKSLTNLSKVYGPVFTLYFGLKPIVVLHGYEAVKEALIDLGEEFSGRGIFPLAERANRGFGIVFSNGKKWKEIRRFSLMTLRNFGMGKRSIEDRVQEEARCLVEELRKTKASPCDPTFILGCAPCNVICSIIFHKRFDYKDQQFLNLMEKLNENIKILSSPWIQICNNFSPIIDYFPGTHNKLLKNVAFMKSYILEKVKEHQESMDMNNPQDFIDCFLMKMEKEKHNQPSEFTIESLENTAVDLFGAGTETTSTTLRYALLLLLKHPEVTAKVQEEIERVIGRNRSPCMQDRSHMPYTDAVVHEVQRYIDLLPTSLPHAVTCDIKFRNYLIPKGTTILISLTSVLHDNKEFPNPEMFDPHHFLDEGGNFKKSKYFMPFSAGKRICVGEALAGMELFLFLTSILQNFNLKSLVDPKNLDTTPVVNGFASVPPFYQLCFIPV

[7] = HEp-2 cell cytotoxicity, dose response, cytotoxicity control for RSV inhibitor project, HTS (AID 2410); type: functional; conditions: human respiratory syncytial virus
[8] = target: T4, Rac GTPase-activating protein 1 (Homo sapiens, UniProt Q9H0H5); test: MgcRacGAP GTPase-activating activity inhibitors, confirmation, biochemical, ADP Hunter fluorescence, primary and confirmatory (AID 624330); type: functional
T4 sequence (Q9H0H5 whole entry): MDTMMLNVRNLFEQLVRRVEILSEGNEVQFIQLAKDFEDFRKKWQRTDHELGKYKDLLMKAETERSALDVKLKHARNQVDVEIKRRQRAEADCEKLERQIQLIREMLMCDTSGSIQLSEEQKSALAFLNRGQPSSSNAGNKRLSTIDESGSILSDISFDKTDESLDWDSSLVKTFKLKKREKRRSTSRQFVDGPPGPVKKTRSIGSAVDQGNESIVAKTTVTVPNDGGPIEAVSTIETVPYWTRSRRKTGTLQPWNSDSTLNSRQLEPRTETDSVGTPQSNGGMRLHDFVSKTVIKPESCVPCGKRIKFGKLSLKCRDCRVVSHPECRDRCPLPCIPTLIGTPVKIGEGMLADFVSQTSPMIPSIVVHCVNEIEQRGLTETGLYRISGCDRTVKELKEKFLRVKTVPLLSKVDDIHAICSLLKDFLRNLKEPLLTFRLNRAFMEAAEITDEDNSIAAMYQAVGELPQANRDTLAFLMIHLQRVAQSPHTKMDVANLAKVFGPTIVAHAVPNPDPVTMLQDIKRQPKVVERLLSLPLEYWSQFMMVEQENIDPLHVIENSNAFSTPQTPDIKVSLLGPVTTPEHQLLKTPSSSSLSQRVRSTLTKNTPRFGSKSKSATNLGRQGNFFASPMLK

[9] = target: T5, Heat shock factor protein 1 (Mus musculus, UniProt P38532); test: inhibition of MG132-induced HSE-luciferase signal, confirmation, cell-based, NIH3T3, luminescence, dose retest (AID 2382); type: functional;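 note: NIH3T3 fibroblasts with HSF1-driven luciferase reporter stressed by proteasome inhibitor MG132; luminescence from HSF1-driven luciferase expression after 8 hours of MG132 stress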
T5 sequence (P38532 whole entry): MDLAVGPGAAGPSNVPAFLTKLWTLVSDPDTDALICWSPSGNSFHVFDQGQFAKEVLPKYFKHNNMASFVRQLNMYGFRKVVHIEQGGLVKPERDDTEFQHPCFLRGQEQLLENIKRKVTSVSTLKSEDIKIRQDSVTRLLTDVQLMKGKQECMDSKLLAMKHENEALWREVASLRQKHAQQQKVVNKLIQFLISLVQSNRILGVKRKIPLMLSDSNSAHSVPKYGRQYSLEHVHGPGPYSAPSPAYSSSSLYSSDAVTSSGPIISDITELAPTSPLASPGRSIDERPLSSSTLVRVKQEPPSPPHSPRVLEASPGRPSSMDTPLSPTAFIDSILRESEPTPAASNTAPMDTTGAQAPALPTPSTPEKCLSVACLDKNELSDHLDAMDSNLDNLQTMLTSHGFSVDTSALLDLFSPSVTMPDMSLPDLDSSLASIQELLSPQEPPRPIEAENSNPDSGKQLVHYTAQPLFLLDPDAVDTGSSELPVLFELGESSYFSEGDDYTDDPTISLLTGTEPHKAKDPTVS

[10] = target: Eukaryotic translation initiation factor 4E (Mus musculus, UniProt P63073); test: eIF4E–eIF4G protein interaction inhibitors, dose response, biochemical, TR-FRET (AID 855); type: functional;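 note: potency for disrupting eIF4E binding to eIF4GI seen as loss of FRET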
Sequence of Eukaryotic translation initiation factor 4E (P63073 whole entry): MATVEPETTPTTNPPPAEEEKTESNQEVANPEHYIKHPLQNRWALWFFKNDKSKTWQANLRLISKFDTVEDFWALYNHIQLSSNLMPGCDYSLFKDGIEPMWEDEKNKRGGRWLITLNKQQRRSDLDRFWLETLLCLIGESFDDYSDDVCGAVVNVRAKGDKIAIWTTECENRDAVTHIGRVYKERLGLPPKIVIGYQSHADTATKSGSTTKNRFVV

[11] = target: T6, Zinc finger protein mex-5 (Caenorhabditis elegans, UniProt Q9XUB2); test: MEX-5/TCR-2 RNA interaction inhibitors, dose response, biochemical, C. elegans, fluorescence polarization (AID 1960)
T6 sequence (Q9XUB2 whole entry): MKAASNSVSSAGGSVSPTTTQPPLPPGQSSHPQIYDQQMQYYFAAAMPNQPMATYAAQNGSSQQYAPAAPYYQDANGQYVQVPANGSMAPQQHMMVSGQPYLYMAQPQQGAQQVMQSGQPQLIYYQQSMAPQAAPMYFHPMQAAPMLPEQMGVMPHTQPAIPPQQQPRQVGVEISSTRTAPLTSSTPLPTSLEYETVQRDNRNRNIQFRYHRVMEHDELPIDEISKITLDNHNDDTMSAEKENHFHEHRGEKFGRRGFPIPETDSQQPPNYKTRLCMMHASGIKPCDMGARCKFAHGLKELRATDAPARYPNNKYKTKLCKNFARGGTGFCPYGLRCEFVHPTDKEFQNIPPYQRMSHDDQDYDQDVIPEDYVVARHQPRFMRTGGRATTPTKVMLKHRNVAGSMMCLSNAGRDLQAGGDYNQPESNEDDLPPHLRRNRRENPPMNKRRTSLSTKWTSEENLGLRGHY

[12] = target: T7, RNA-binding protein pos-1 (Caenorhabditis elegans, UniProt G5EF15); test: inhibitors of POS-1/mex-3 RNA binding, dose response, biochemical, fluorescence polarization (AID 1964);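 note: purified POS-1 fused to maltose binding protein made in E. coli; potency of compounds blocking POS-1 binding to fluorescent RNA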
T7 sequence (G5EF15 whole entry): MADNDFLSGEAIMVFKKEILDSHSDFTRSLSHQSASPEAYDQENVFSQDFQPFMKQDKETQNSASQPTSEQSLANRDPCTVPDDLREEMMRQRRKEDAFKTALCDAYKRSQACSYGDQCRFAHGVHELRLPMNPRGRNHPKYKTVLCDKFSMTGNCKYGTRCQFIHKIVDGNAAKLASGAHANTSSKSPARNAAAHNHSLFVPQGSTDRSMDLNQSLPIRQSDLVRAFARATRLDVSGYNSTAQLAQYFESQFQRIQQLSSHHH

SMILES: Cc1ccc(-c2nn(-c3ccccc3)cc2/C=N/NS(=O)(=O)c2ccccc2)cc1
- IC50 (Coagulation factor XII): > 50 µM (inactive)

SMILES: Cc1ccc(S(=O)(=O)N(Cc2ccccc2)c2ccccc2C(=O)NCc2ccco2)cc1
- IC50 [1]: 6.81 µM (active)
- IC50 (Coagulation factor XII): > 50 µM (inactive)
- AC50 (Cytochrome P450 2D6): 15.8 µM (inconclusive)
- EC50 [2]: > 53 µM (inactive)
- IC50 [3]: < 0.368 µM (active)

SMILES: Oc1c(C(Nc2ccccn2)c2cccnc2)cc(Cl)c2cccnc12 (centres undefined)
- AC50 [4]: 4.19 µM (active)
- EC50 [5]: 4.69 µM (active)
- AC50 (INS1): 2.65 µM (active)
- EC50 [6]: 1.64 µM (active)
- EC50 (Streptococcus): 9.26 µM (active)
- EC50 (Streptokinase A): > 150 µM (not active)

SMILES: CN(C)/C=C/C(=O)c1ccc2noc(-c3ccccc3)c2c1
- AC50 [4]: 2.51 µM (active)

SMILES: O=C(Nc1ccccc1C(=O)O)c1cccc(C(=O)Nc2ccccc2C(=O)O)c1
- IC50 (Genome polyprotein): 54.9 µM (active)

SMILES: C/C(=N\NC(=O)CCn1nnc2ccccc21)c1cccs1
- IC50 (Coagulation factor XII): > 50 µM (inactive)

SMILES: C=CCSc1nc(C)c(CC=C)c(O)n1
- IC50 (Coagulation factor XII): > 50 µM (inactive)

SMILES: CCCCc1nc(O)c(C#N)c2c1CCCC2
- IC50 (Coagulation factor XII): > 50 µM (inactive)
- AC50 (Cytochrome P450 2C9): 251 nM (inconclusive)
- AC50 (Cytochrome P450 2D6): 35.5 µM (inconclusive)

SMILES: CCOC(=O)c1c(N)sc2c(O)c(Br)ccc12
- CC50 [7]: 47 µM (active)
- IC50 [8]: 58.6 µM (active)
- EC50 [9]: > 195 µM (not active)
- IC50 [10]: > 64 µM (inactive)

SMILES: CC(C)c1ccc(Nc2ccc(C(=O)O)cc2[N+](=O)[O-])cc1
- IC50 (Genome polyprotein): 70.7 µM (active)

SMILES: COc1cccc(Cn2c(NCc3ccco3)nc3c2c(=O)n(C)c(=O)n3C)c1
- IC50 (Coagulation factor XII): > 50 µM (inactive)
- AC50 (INS1): 3.85 µM (active)

SMILES: O=[N+]([O-])c1cc(-c2ccccc2)cc([N+](=O)[O-])c1O
- IC50 [1]: > 20 µM (inactive)
- IC50 (Genome polyprotein): 58.8 µM (active)
- EC50 [2]: > 53 µM (inactive)
- IC50 [3]: 9.96 µM (active)

SMILES: CSc1sccc1/C=C(/C#N)C(=O)c1ccco1
- IC50 (Genome polyprotein): > 100 µM (active)
- IC50 [8]: 22.8 µM (active)
- EC50 [11]: > 300 µM (not active)
- EC50 [12]: > 300 µM (not active)
